The text below walks through data of patent publication US9256062B2, “Electrowetting display apparatus and dye composition for electrowetting display” (FUJIFILM CORPORATION, priority 2012, dated 2016).

What all share (assay type): physicochemical
Data set [1] is described as follows: Maximum absorption wavelength, absorbance and absorption coefficient (visible light spectrophotometer). The following applies: for Absorbance (abs) / Maximum absorption wavelength (λmax): 0.001%-by-mass n-decane solution; for Molar absorption coefficient (ε): at maximum absorption wavelength, calculated by Lambert-Beer law, n-decane solution; for molar extinction coefficients (ε) (in words): summary of Table 1. An excerpt: (§1) Azamethine colorants (the above-mentioned Exemplary Compounds 16, 17, 1, and 3 shown in Table 1 below) and n-decane that was an organic solvent were mixed, respectively, thereby preparing 4 kinds of 0.001%-by-mass n-decane solutions (colored compositions) colored with the azamethine colorants, respectively.
(§2) Separately, azo colorants (Comparative Compounds 1 to 3 mentioned below) and n-decane that was an organic solvent were mixed, respectively, thereby preparing 3 kinds of 0.001%-by-mass n-decane solutions (comparative colored compositions) colored with the azo colorants, respectively, as comparative colored compositions.
The maximum absorption wavelength (λmax) and the absorbance of the colored solutions (colored compositions) were measured using a visible light spectrophotometer (UV-1800 PC, trade name, manufactured by Shimadzu Corporation). Further, the molar extinction coefficient (∈) at a maximum absorption wavelength (λmax) of the colorants included in the colored solutions (the colored compositions) was calculated, based on a Lambert-Beer law.

Data set [2] in a line: Color tone of colored solution, visually observed. The following applies: 0.001%-by-mass n-decane solution.
Source text: as §1, §2
Each of the colored solutions (colored compositions) was visually observed and evaluated regarding the color tone thereof.

Data set [3] in a line: Relative dielectric constant of colorant. The following applies: for Relative dielectric constant (1 kHz): extrapolated to colorant concentration 100% from diluted n-decane solutions, 1.0 V, 20° C., 40% RH; for relative dielectric constants (in words): summary of Table 1. As for the experimental part: Herein, the relative dielectric constant of the colorant denotes a relative dielectric constant (calculated value) at a colorant concentration of 100%, as determined by extrapolating a straight line (calibration curve) indicating the relationship between the colorant concentration and the relative dielectric constant in a diluted colorant solution.
An equivalent parallel capacitance when a measurement frequency 1 kHz and a measurement voltage of 1.0 V are applied is measured in the state in which a diluted colorant solution is sandwiched between two electrodes facing each other with an electrode interval of 10 μm, and the relative dielectric constant of the diluted colorant solution is calculated by the following equation, based on the equivalent parallel capacitance thus obtained. Relative dielectric constant of diluted colorant solution=Equivalent parallel capacitance×Electrode interval/Electrode area/Dielectric constant of vacuum (∈0)
The relative dielectric constant of each of the colorants is determined by the following method.
That is, the relative dielectric constants of plural diluted colorant solutions at various concentrations, which had been prepared as described in (4-1) below, were measured, respectively, in the manner as described in (4-2) below. From the results obtained, a straight line (calibration curve) showing the relationship between the colorant concentrations and the relative dielectric constants were created. The relative dielectric constant (calculated value) at a colorant concentration of 100% was determined by extrapolating the straight line (calibration curve), and the obtained value was taken as the relative dielectric constant of the colorant.
The respective colorants and n-decane as an organic solvent are mixed, to thereby prepare n-decane solutions (diluted colorant solutions) at various concentrations, respectively.
A diluted colorant solution was sandwiched between ITO electrode-containing glass substrates that are flat plates in parallel facing each other at an electrode interval of 10 μm, and then an equivalent parallel capacitance was measured at the time of voltage application for measurement of 1.0 V at a frequency for measurement of 1 kHz under the conditions of 20° C. and 40% RH using a Model 2353LCR meter (trade name, manufactured by NF Corporation). Based on the equivalent parallel capacitance, the relative dielectric constant of the diluted colorant solution was determined in accordance with the following equation.
Relative dielectric constant of diluted colorant solution=Equivalent parallel capacitance×Interval of electrodes/Area of electrode/Dielectric constant of vacuum (∈0)

A short description of another data set: Solubility in hexane. To be noted: for Solubility in hexane [%]: n-hexane, 25° C. and 0.1 MPa, % by mass; for solubility in hexane (in words): summary of Table 1. As for the experimental part:
The solubility of each of the colorants in n-hexane as a non-polar solvent was measured as described below.
The respective colorants were each dissolved in n-hexane that had been heated to 50° C. to prepare a saturated solution, and then, the obtained saturated solution was left to stand for 1 hour under an environment of 25° C. and 0.1 MPa. The precipitated colorant was filtered, and the precipitation amount was measured to calculate the solubility (% by mass) of each of the colorants in n-hexane at 25° C. and 0.1 MPa.

For `CCCCC(CC)c1nnc2n1N=C(C(C)(C)C)/C2=N/c1c(C(C)(C)C)nn2c(C(CC)CCCC)n[nH]c12` (stereo not drawn) [Exemplary Compound 1], in data set [1], the “Absorbance (abs)” value turned out to be 0.533 abs, the “Maximum absorption wavelength (λmax)” value came out at 492 nm, the Molar absorption coefficient (ε) is 28600 L/mol/cm and the “molar extinction coefficients (ε) (in words)” value was “high”. Further, the Color of solution result in data set [2] is reported as “Orange”. Also, in data set [3], the “Relative dielectric constant (1 kHz)” value is given as 3.3 and the “relative dielectric constants (in words)” value is given as “low”. Further, in “Solubility in hexane”, the “Solubility in hexane [%]” value is given as 10% and the “solubility in hexane (in words)” value is reported as “high solubility”.

Turning to `CCCCC(CC)c1n[nH]c2c(/N=C3/C(C#N)=C(C(=O)OC4C(C(C)(C)C)CC(C)CC4C(C)(C)C)c4nc(C(C)(C)C)nn43)c(C(C)(C)C)nn12` (stereo not drawn) [Exemplary Compound 3], in data set [1], the “Absorbance (abs)” value was 0.797 abs, the “Maximum absorption wavelength (λmax)” value was determined as 545 nm, the Molar absorption coefficient (ε) was 56900 L/mol/cm and the “molar extinction coefficients (ε) (in words)” value is on record as “high”. Besides, the Color of solution result in data set [2] was “Red”. Moreover, in data set [3], the “Relative dielectric constant (1 kHz)” value is given as 5.1 and the “relative dielectric constants (in words)” value is “low”. In addition, in the data set “Solubility in hexane”, the “Solubility in hexane [%]” value is on record as ≥ 40 or % and the “solubility in hexane (in words)” value is “high solubility”.
